Measured values as given in patent US12220420B2, “Combination therapy for cancer treatment” (Galera Labs, LLC, priority 2016, dated 2025).

Experiments:
[1] = test system: Breast cancer cells (MB231) and lung cancer cells (H1299); assay: Clonogenic killing in presence and absence of N-acetylcysteine (NAC); format: cell-based, human; conditions: 10 mM of NAC; 20 μM GC4419, 100 μM BSO, 500 nM Au
Method: Breast cancer cells (MB231) and lung cancer cells (H1299) were grown in culture to 75% confluence and treated with either 20 μM GC4419, or 100 μM BSO with 500 nM Au added after 48 hours, or all of GC4419, BSO and Au. The cancer cells were also treated with the same sets of compounds, but with the further addition of 10 mM of NAC. […] Thus, the results support that pentaaza macrocyclic ring complexes such as GC4419 combined with inhibitors of hydrogen peroxide metabolism can selectively kill cancer cells versus normal cells via oxidative stress correlated with increase H2O2 fluxes.

[2] = test system: breast cancer cells (MB231); assay: Total glutathione levels, DTNB recycling spectrophotometric assay; format: cell-based, human; conditions: 50 μM or 100 μM BSO, 24 hours
Method: (§1) The effect of buthionine sulfoximine (BSO) on reduced glutathione (GSH) levels in breast cancer cells (MB231) and lung cancer cells (H292) was examined. The cells were plated and grown to 75% confluency, then treated with either 50 μM BSO or 100 μM BSO for another 24 hours before harvesting for analysis for total glutathione levels using a DTNB recycling spectrophotometric assay.

[3] = test system: lung cancer cells (H292); assay: as above; format: cell-based, human; conditions: 50 μM or 100 μM BSO, 24 hours
Method: as §1

[4] = test system: Non-small cell lung cancer cells (H1299); assay: Clonogenic cell survival assay, auranofin alone and with ionizing radiation; format: cell-based, human
Method: The effects of an inhibitor of hydrogen peroxide metabolism, auranofin (a thioredoxin reductase inhibitor), on cancer cells was tested in a clonogenic cell survival assay to determine the effects of the compound alone and in combination with ionizing radiation. Non-small cell lung cancer cells (H1299) were exponentially grown and treated with auranofin (Au) either by itself for 15 minutes, or 15 minutes prior to the first of two ionizing radiation (IR) doses (2 Gy each) spaced 24 hours apart. After the last ionizing radiation dose, the cells were trypsinized, counted, replated at varying lower densities and incubated for 12 days. Plates were stained and counted for clonogenic survival assays. […] Furthermore, treatment with auranofin sensitized the cancer cells to radiation, thereby increasing the efficiency of the ionizing radiation in cell killing (Auranofin+IR) as compared to administration of ionizing radiation alone (IR 4 Gy).

[5] = test system: HN5 (HNSCC) tumors; assay: Animal model of squamous cell carcinoma of the head and neck with or without radiation; format: in vivo
Method: The effect of GC4419 was tested in vivo on animal models of squamous cell carcinoma of the head and neck (HNSCC). GC4419 was delivered as a 24 mg/kg daily dose delivered as an ip bolus on 5 consecutive days starting 1 hour prior to irradiation. Radiation was delivered as a single dose of 12 Gy using a 10 mm collimated beam aimed at the center of the tumor.

[6] = test system: human lung cancer cells (H292); assay: PeroxyOrange-1 (PO-1) oxidation as a measure of steady-state H2O2; format: cell-based
Method: The effects on H2O2 fluxes of a pentaaza macrocyclic ring complex (GC4419) provided in combination with inhibitors of H2O2 metabolism were tested in human lung cancer cells (H292). The H292 cells were treated with 20 μM GC4419 for 3 and 24 hours, and PeroxyOrange-1 (PO-1) oxidation was monitored as a measure of steady-state H2O2. […] Also, the combination of GC4419+BSO+AT for 3 hours (B-AT 4419 3) and 24 hours (B-AT 4419 24) further increased PO-1 oxidation to 3-fold greater than a control. The PO-1 oxidation was also monitored in dosing the cells three times with 100 μM hydrogen peroxide (H2O2).

[7] = test system: breast cancer cells (MB231); assay: 3-aminotriazole mediated inactivation of catalase (H2O2 flux); format: cell-based, human; conditions: 20 μM GC4419, MB231
Method: (§2) The effect of the pentaaza macrocyclic ring complex GC4419 in increasing levels of H2O2 in cancer cells was further tested by measuring the 3-aminotriazole mediated inactivation of catalase, using a method as described in Ahmad et al, J. Biol Chem, 280(6), 4254-4263 (2005). Briefly, head and neck cancer cells (Cal27), lung cancer cells (H1299) and breast cancer cells (MB231) were grown in 60 mm dishes, transduced with 50 MOI adCat to genetically increase catalase expression, and allowed 48 hours to recover so that the activity of catalase could increase to maximal levels. Afterwards, 50 mM AT was added for 5 minutes, which irreversibly binds to and inhibits the catalase intermediate formed in the presence of H2O2. 20 μM GC4419 was added, and cells were collected at 10 minute intervals for 60 minutes, and the inhibition of catalase was determined. A Lowry's protein assay determined the total protein concentration of individual samples. This method provides a stoichiometry of one catalase molecule being inhibited for each molecule of H2O2, thereby providing for precise measurements of changes in H2O2 flux. The results are shown in FIG. 3 (left hand side is Cal27, middle is H1299, and right hand side is MB231).

[8] = test system: lung cancer cells (H1299); assay: as above; format: cell-based, human; conditions: 20 μM GC4419, H1299
Method: as §2

[9] = test system: Subcutaneous H1299 tumors; assay: Non-small cell lung cancer tumor xenograft model with or without radiation; format: in vivo
Method: The effect of the pentaaza macrocyclic ring complex GC4419 was tested in vivo on non-small cell lung cancer (NSCLC) in a tumor xenograft model. Subcutaneous H1299 tumors were subjected to biologically equivalent fractionation schemes of 18 Gy×1 dose or 2 Gy×16 doses (delivered on consecutive days), 1 hour following an initial injection of 24 mg/kg GC4419. GC4419 was also administered on the next 4 consecutive days after the first injection (given, in the case of the 2 Gy fraction dose experiment, 1 hour prior to each of those 4 days' radiation treatments).

[10] = Anderson 2015; cited from earlier work
[11] = Tuder et al. 2003; cited from earlier work
[12] = test system: H1299 cancer cells; assay: Clonogenic assay of FIG. 4, normalized surviving fraction; format: cell-based, human; conditions: 20 μM GC4419, FIG. 4, control also about 1
Method: The effect of the pentaaza macrocyclic ring complex GC4419 in combination with inhibitors of hydrogen peroxide metabolism was tested on breast cancer cells (MB231) and non-small cell lung cancer cells (H1299) versus normal cells (HMEC normal mammary epithelial cells and HBEpC normal bronchial epithelial cells). The cells were plated and grown exponentially for 2 days. Either or both of 20 μM of the CG4419 compound and 100 μM BSO were added at time 0 of exposure, and 500 nM Auranofin (a thioredoxin reductase inhibitor) was added 48 hours after, for 15 minutes prior to a clonogenic assay.

[13] = 24 mg/kg daily ip bolus, 5 consecutive days
[14] = 24 mg/kg GC4419, 5 consecutive days

CC(=O)N[C@@H](CS)C(=O)O [NAC, N-acetylcysteine]
effect of NAC on cell killing caused by GC4419+Au and/or BSO [1]: nearly completely inhibited the cell killing

CCCCS(=N)(=O)CCC(N)C(=O)O (stereo not shown) [BSO, buthionine sulfoximine]
glutathione levels [2]: significantly decreases
glutathione levels [3]: significantly decreases

CC(=O)OCC1OC([S-])C(OC(C)=O)C(OC(C)=O)C1OC(C)=O.CCP(CC)CC.[Au+] (stereo not shown) [auranofin, gold(+1)cation; 3,4,5-triacetyloxy-6-(acetyloxymethyl)oxane-2-thiolate; triethylphosphanium]
normalized surviving cell fraction ([4]; 250 nM of auranofin, FIG. 6): over 0.5
cell killing as compared to a control ([4]; 250 nM, 15 minutes): significant cell killing
response of cancer cells to ionizing radiation ([4]; 15 minutes prior to first of two IR doses (2 Gy each), versus IR 4 Gy alone): significantly increases

[Cl][Mn][Cl].c1cc2nc(c1)CN[C@H]1CCCC[C@@H]1NCCN[C@H]1CCCC[C@@H]1NC2 [GC4419]
tumor growth [5, 13]: significant growth delay
tumor volumes as compared to a control [5, 13]: reduced tumor volumes
tumor growth, combination with radiation ([5]; 24 mg/kg daily ×5 starting 1 hour prior to single dose of 12 Gy): even greater growth delays
increase in PO-1 oxidation as compared to the control ([6]; 20 μM GC4419, 3 hours): 1.5 fold
increase in PO-1 oxidation as compared to the control ([6]; 20 μM GC4419, 24 hours): 1.5 fold
steady-state levels of intracellular H2O2 flux, normalized to the control [7]: significant increases
steady-state levels of intracellular H2O2 flux, normalized to the control [8]: significant increases
response of NSCLC tumors to radiation ([9]; 24 mg/kg GC4419 1 hour before 18 Gy×1 or 2 Gy×16): significantly enhancing radiation induced growth delay, and survival
anti-cancer effect, cancer size as compared to the control [9, 14]: reduced cancer size
survival as compared to the control [9, 14]: improved survival
oral mucositis [10]: reduce oral mucositis
VEGFr inhibitor-induced pulmonary disease [11]: attenuate VEGFr inhibitor-induced pulmonary disease
normalized surviving cell fraction (on a log scale) [12]: about 1
